Test results as given in patent US20040127511A1 (Pharmacia Corporation, priority 2002, published 2004).
Structures can show the parent of a compound that is named as a salt. Where two headings read alike, the source gives them in different places.

Experiments:
TNFα release, U937 cells = experiment: U937 Cell TNFα Release Assay (LPS-stimulated, TNFα ELISA); assay type: cell-based; settings: Homo sapiens, read-out: TNFα release assay IC50
Description: U937 Cell TNFα Release Assay
The human monocyte-like cell line, U937 (ATCC #CRL-1593.2), is cultured in RPMI1640 media with 10% heat-inactivated fetal calf serum (GIBCO), glutamine and pen/strep at 37° C. and 5% CO2. Differentiation of U937 to monocytic/macrophage-like cells is induced by the addition of phorbol12-myristate 13-acetate (Sigma) at final concentration of 20 ng/ml to a culture of U937 cells at ˜0.5 million cells/ml and incubated for 24 hrs. The cells are centrifuged, washed with PBS and resuspended in fresh media without PMA and incubated for 24 hrs. Cells adherent to the culture flask are harvested by scraping, centrifugation, and resuspended in fresh media to 2 million cells/ml, and 0.2 ml is aliquoted to each of 96 wells in flat-bottom plate. Cells are then incubated for an additional 24 hrs to allow for recovery. […]
ELISA plates (NUNC-Immuno™ Plate Maxisorb™ Surface) were coated with purified mouse monoclonal IgG1 anti-human TNFα antibody (R&D Systems #MAB610; 1.25 ug/ml in sodium bicarbonate pH 8.0, 0.1 ml/well) and incubated at 4° C. […] Enzymatic conversion of ABTS to colored product was measured after 5-30 minutes using a SpectroMax 340 spectrophotometer (Molecular Devices) at 405 nm. TNF levels were quantitated from a recombinant human TNFα (R&D Systems #210-TA-010) standard curve using a quadratic parameter fit generated by SoftMaxPRO software. […]

[1] = test system: LPS-induced TNFα production; experiment: Rat LPS assay: Lipopolysaccharide (LPS)-Induced TNFα Production; assay type: in vivo; settings: 20 mpk (IP); inhibition of serum TNFα vs vehicle
MAPKAPK2 = MAPKAPK2 (Homo sapiens, UniProt P49137); experiment: biochemical; assay type: biochemical
Description: The phosphorylation of HSP-peptide ([sequence]) by MAPKAPK2 was measured using an anion exchange resin capture assay method. […] The reaction was terminated and [γ^33P]ATP was removed from solution by the addition of 150 μl of AG 1×8 ion exchange resin in 900 mM sodium formate pH 3.0. A 50 μl aliquot of head volume was removed from the quenched reaction mixture and added to a 96-well plate, 150 μl of Microscint-40 (Packard) was added and the amount of phosphorylated-peptide was determined.
Compounds are evaluated as potential inhibitors of the MK2 kinase by measuring their effects on MK2 phosphorylation of the peptide substrate. Compounds may be screened initially at two concentrations prior to determination of IC50 values. Screening results are expressed as percent inhibition at the concentrations of compound tested. For IC50 value determinations, compounds are tested at six concentrations in ten-fold serial dilutions with each concentration tested in triplicate. Results are expressed as IC50 values in micromolar. The assay is performed at a final concentration of 2% DMSO.

[2] = HSP-peptide substrate, 0.03 mM ATP, 2% DMSO, read-out: MK-2 Avg. IC50

Sequence of MAPKAPK2 (P49137 whole entry, species assumed): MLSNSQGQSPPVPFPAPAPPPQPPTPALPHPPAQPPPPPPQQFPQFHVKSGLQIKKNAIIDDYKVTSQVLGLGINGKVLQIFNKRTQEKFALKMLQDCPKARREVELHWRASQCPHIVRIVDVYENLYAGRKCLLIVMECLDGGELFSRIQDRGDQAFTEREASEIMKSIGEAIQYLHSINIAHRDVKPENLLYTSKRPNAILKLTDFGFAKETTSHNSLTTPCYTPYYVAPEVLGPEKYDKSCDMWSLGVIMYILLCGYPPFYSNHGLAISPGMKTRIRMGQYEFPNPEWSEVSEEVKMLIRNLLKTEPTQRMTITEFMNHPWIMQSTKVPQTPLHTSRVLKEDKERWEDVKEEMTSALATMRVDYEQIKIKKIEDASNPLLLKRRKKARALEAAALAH

N#Cc1c(N)nc2c(c1N)Cc1ccc(OCCN)cc1O2 [No. 19, 2,4-diamino-8-(2-aminoethoxy)-5H-chromeno[2,3-b]pyridine-3-carbonitrile hydrochloride]
IC50 (TNFα release, U937 cells; U-937, 4 h): 6.9 µM | Rat LPS Assay inhibition [1]: 88%

N#Cc1c(N)nc2c(c1N)Cc1ccc(OCCN3CCCC3)cc1O2.O=C(O)C(F)(F)F [No. 25, 2,4-diamino-8-(2-pyrrolidin-1-ylethoxy)-5H-chromeno[2,3-b]pyridine-3-carbonitrile]
IC50 (TNFα release, U937 cells; U-937, differentiated U937 cells, LPS 100 ng/ml, 4 hrs): 2.9 µM | Rat LPS Assay inhibition [1]: 60%

N#Cc1c(N)nc2c(c1N)Cc1ccc(OCCN3CCOCC3)cc1O2 [No. 28, trifluoroacetate]
IC50 (MAPKAPK2): 0.91 µM

Cc1ccc2c(c1)Oc1nc(N)c(C#N)c(N)c1C2 [No. 42, trifluoroacetate]
IC50 (MAPKAPK2; [2]): ≥ 200 µM

COc1cc(OC)c2c(c1)Oc1nc(N)c(C#N)c(N)c1C2 [No. 62, trifluoroacetate]
IC50 (MAPKAPK2; [2]): ≥ 200 µM

COc1cccc2c1Cc1c(nc(N)c(C#N)c1N)O2 [No. 70, trifluoroacetate]
IC50 (MAPKAPK2; [2]): ≥ 200 µM

N#Cc1c(N)nc2c(c1N)Cc1cc(OC(F)(F)F)ccc1O2 [No. 70, trifluoroacetate]
IC50 (MAPKAPK2; [2]): ≥ 200 µM

N#Cc1c(N)nc2c(c1N)Cc1cccc(C(=O)O)c1O2 [No. 81, trifluoroacetate]
IC50 (MAPKAPK2): ≥ 200 µM

N#Cc1c(N)nc2c(c1N)Cc1cccc(OCc3ccncc3)c1O2 [No. 83]
IC50 (MAPKAPK2; [2]): ≥ 200 µM

COc1cc2c(cc1OC)Oc1nc(N)c(C#N)c(NCCN3C(=O)c4ccccc4C3=O)c1C2 [No. 94]
IC50 (MAPKAPK2; [2]): ≥ 200 µM

CCNc1nc2c(c(NCC)c1C#N)Cc1cc(OC)c(OC)cc1O2 [No. 103, trifluoroacetate]
IC50 (MAPKAPK2; [2]): ≥ 200 µM
